{"source": "patent US20260256799A1", "about": "“INHIBITORS FOR TREATING SOLID TUMOURS” (UNIVERSITY OF SOUTHAMPTON, priority 2023, published 2026)", "key": {"[1]": {"details": "monotherapy, dose escalation phase 1; cited from earlier work"}, "HFFF2 fibroblasts": {"tested_on": "HFFF2 fibroblasts", "experiment": "TGF-β1-induced myofibroblast differentiation of fibroblasts (Western blotting, immunofluorescence, Q-RT-PCR, collagen gel contraction)", "format": "cell-based, human", "method": "Human NSCLC cell line H441, HNSCC SCC25, murine cancer cell line TC-1 (lung), MC38 (colon) and human fetal foreskin fibroblasts HFFF2 were purchased from European Collection of Cell Cultures (Public Health England) or ATCC; HNSCC 5PT [32] were provided by l. Mackenzie (Queen Mary University of London, UK). HEK-293T cells and IMR90 lung fibroblasts were provided by Jesus Gil (Imperial College, London, UK). SCC25 were grown in Ham's F12:DMEM (1:1 ratio) medium with 10% FBS (Calbiochem) and 292 μg/ml L-Glutamine. 5PT were cultured in keratinocyte growth medium. HEK-293T, H441, MC38, HFFF2, IMR90 and primary fibroblasts were grown in DMEM supplemented with 10% FBS and 292 μg/ml L-Glutamine. Primary fibroblasts were isolated as previously used at early passage (p1-10). C57BL/6 murine normal lung and colon fibroblasts (MLF and MCF respectively) were grown at 3% oxygen. TC-1 were cultured in RPMI supplemented with 10% FBS and 292 μg/ml L-Glutamine. All cell cultures were routinely tested for mycoplasma contamination. All cells were cultured using standard cell culture plates/flasks (Corning). HFFF2 or IMR90 cells were transfected with 25 μM On-Target pool siRNA (Thermo Scientific/Dharmacon) using Oligofectamine reagent (Life Technologies) as described. Stable knockdown was performed using retro/lentiviral mediated transduction of shRNA plasmids, as previously described followed by cell selection using 1 μg/ml puromycin for 5-7 days. NOX4-inducible HEK-293 cells (kindly provided by Vincent Jaquet) were treated with 1 μg/ml doxycycline. Wild type and mutant (C2991L) ATM over-expression was carried out transfecting HFFF2 with Viafect (Promega) according to manufacturer's instructions and selected for 10 days with 4 mg/ml G418. p-Retrosuper-shATM (ATM #1:912) and pCDNA3.1-Flag-mut-ATM (C2991L; pTP1625 clone) were kindly provided by Yosef Shiloh and Tanya Paull respectively. pLKO.1 murine shATM (TRCN0000012643) and pCDNA3.1-Flag-wt-ATM (31985) were purchased from Sigma and Addgene respectively. 2 ng/ml TGF-3 (TGF-β1; R&D Systems; for 3 days) was used to induce myofibroblast differentiation. 10 ng/ml IL-1pR (R&D Systems) for 72 hours was used to induce iCAF differentiation. […] All the inhibitors were resuspended in DMSO. To trigger DDR activation and/or cell stress HFFF2 were either irradiated with 2-100Gy using 350Kv X-Ray Irradiation System (Faxitron), or treated with 100 ng/ml Neocarzinostatin for 2 hours (NCS; Sigma), with 2-10 mM H2O2(Fisher Scientific) or with 5 μg/ml Cisplatin (Sandoz) for 30 minutes.\n5×10^3 HFFF2 were plated on permanox chamber slides (Thermo Scientific) and treated as described in the figure legends. Immunostaining was performed as previously. DAPI was used as nuclear counterstain and coverslips were mounted using fluorescent mounting solution (Dako). Images were taken using an Olympus IX81 fluorescence microscope and Xcellence program. DNA Damage foci were quantified from at least 8 non-overlapping FoV with ~300 cells in total per condition. Kruskall-Wallis statistical test was used to indicate the presence of a different distribution per time points in each group of foci. For collagen 1A1 deposition, 5×10^3 HFFF2 or MLF were seeded into chamber slides and treated with TGF-β1±inhibitors for a week (treated day 1 & day 4). Decellularisation was performed using 0.25M NH4OH in 50 mM Tris at 37° C. for 30 minutes and slides fixed with ice-cold 100% methanol at −20° C. followed by a blocking step. The remainderwas performed as previously described. SMA and Collagen 1A1 quantification was performed using Fiji. High resolution imaging of mouse tumours was carried out using an Axioscan.Z1 scanner (Zeiss)."}, "[2]": {"details": "CCT241533 1.5 μM + TGF-β1 72 hours, HFFF2"}, "[3]": {"details": "CCT241533 1.5 μM + TGF-β1, HFFF2"}}, "data": [{"molecule": "CC(C)n1c(=O)n(C)c2cnc3cc(F)c(-c4ccc(OCCCN5CCCCC5)nc4)cc3c21", "note": "[AZD1390]", "values": [{"measurement": "adverse effects", "setting": "[1]", "value": "not yet reporting to be associated with adverse effects"}]}, {"molecule": "COc1cc2nc(-c3cc(F)ccc3O)nc(N[C@@H]3CNC[C@H]3C(C)(C)O)c2cc1OC", "note": "[CCT241533]", "values": [{"measurement": "TGF-β1-dependent FnEDA expression", "setting": "HFFF2 fibroblasts; [2]", "value": "suppresses"}, {"measurement": "TGF-β1-dependent SMA expression", "setting": "HFFF2 fibroblasts; [2]", "value": "suppresses"}, {"measurement": "SMA-positive stress fiber formation", "setting": "HFFF2 fibroblasts; [3]", "value": "suppresses"}, {"measurement": "collagen deposition", "setting": "HFFF2 fibroblasts; [3]", "value": "suppresses"}]}]}
